Laboratory results taken from patent US20100204202A1, “DRUG FOR ALLEVIATING MOTOR COMPLICATIONS OR PSYCHIATRIC SYMPTOMS OF PARKINSON'S DISEASE” (Asubio Pharma Co., Ltd., priority 2007, published 2010).
Structures can show the parent of a compound that is named as a salt.

Assays:
rats = experiment: Amount of locomotor activity; assay type: in vivo, rat; conditions: 0.3, 1, and 3 mg/kg i.p.; minutes 0-15
Excerpt: For the test, Crl: CD(SD) male rats supplied by Charles River Japan were used (6 weeks old at start of test). For the forced swimming test, the method of the improved type reported by Lucki et al. (Lucki I., “The forced swimming test as a model for core and component behavioral effects of antidepressant drugs”, Behavioural Pharmacology, 1997, 8, p. 523-532; Cryan J. F. et al., “Assessing antidepressant activity in rodents: recent developments and future needs”, TRENDS in Pharmacological Sciences, 2002, 23, p. 238-245) was used. On day 1, each rat was placed in a cylinder filled with water (height 45 cm×diameter 30 cm, water depth 30 cm, water temperature 23° C., water depth set to depth by which back legs and tail of rat will not touch the bottom). The rat was taken out after 15 minutes. At this time, the immobility period (seconds) of minutes 10-15 (5 minutes) was recorded. Based on the results, the rats were assigned to five groups so that there would be no difference among the groups. On day 2, each rat was placed in a cylinder filled with water the same as day 1 and the immobility period (seconds), swimming behavior period (seconds), and climbing behavior period (seconds) of minutes 0-5 (5 minutes) were measured. […]

[1] = tested on: Parkinson's disease model rats; experiment: Rate of incidence of rotational behavior induced by levodopa dosage (response failure); assay type: in vivo, rat; conditions: sustained subcutaneous administration (osmotic pump) from week 6 of repeated levodopa, 2 weeks
Protocol: Therefore, the inventors prepared Parkinson's disease model rats in the same way as in Example 4 and treated the rats by repeated doses of levodopa (twice a day, Monday to Friday) for 7 weeks. The presence or absence of the rotational behavior of each rat was recorded at approximately 1 hour after the administration of levodopa during the repeated dosing period. […] Therefore, from weeks 1 to 5 of repeated doses of levodopa, the inventors recorded the presence of any rotational behavior of the rats each time, then studied the effects of the tested substances from week 6 of repeated doses of levodopa by implanting an Aizet® osmotic pump filled with SUN N4057 or physiological saline (2ML4, volume 2 ml, flow rate 2.5 μl/hr) subcutaneously at the rats. In the 2 weeks after that, the inventors similarly continued to record the presence of any rotational behavior of the rats 1 hour after levodopa administration.

[2] = molecular target: T1, human dopamine D2S receptors (Homo sapiens, UniProt P14416); experiment: Binding affinity test on human dopamine D2S receptors ([3H]spiperone, CHO membranes); conditions: for Ki: Dopamine D2S; for binding affinity (in words): human dopamine D2S receptors
T1 construct: expressed in transfected cells; host or cells: CHO
Protocol: For the test, membrane specimens prepared from Chinese hamster ovary (CHO) cells expressing human dopamine D2S receptors were used. To a 50 mM Tris-HCl (pH 7.4) buffer containing 1.4 mM ascorbic acid, 0.001% BSA, and 150 mM NaCl, [^3H] spiperone (final concentration 0.16 nM), the test sample solution and a membrane specimen were added. The reaction solution was allowed to react at 25° C. for 2 hours, then the reaction solution was filtered with a cell harvester, the filtered filter paper was transferred to a measurement vial, a liquid scintillator was added, and the receptor bond radioactivity remaining on the filter paper was determined with a liquid scintillation counter. The nonspecific bonds were defined as the amount of bonds in the presence of 10 μM haloperidol.
The following formula was used to calculate the binding inhibition rate: […]
From the binding inhibition rate, a regression formula was used to calculate the 50% inhibition concentration. Furthermore, the inhibition constant (Ki) was calculated.

[3] = Solubility (choice of solvent); assay type: physicochemical; conditions: physiological saline
Protocol: Note that the SUN […] was subcutaneously administered right before levodopa administration, the sarizotan was orally administered about 20 minutes before levodopa dosage in accordance with above-mentioned known reports (Bibbiani F. et al., Neurology, 2001, 57, p. 1829-1834), and the Example Compound 4 of Japanese Patent Publication No. 2005-298402A was subcutaneously administered about 30 minutes before levodopa dosage in accordance with the above-mentioned Japanese Patent Publication No. 2005-298402A. Further, for the solvent, for SUN […] and Example Compound 4 of Japanese Patent Publication No. 2005-298402A, physiological saline was used.

T1 sequence (P14416 1-414 isoform P14416-2): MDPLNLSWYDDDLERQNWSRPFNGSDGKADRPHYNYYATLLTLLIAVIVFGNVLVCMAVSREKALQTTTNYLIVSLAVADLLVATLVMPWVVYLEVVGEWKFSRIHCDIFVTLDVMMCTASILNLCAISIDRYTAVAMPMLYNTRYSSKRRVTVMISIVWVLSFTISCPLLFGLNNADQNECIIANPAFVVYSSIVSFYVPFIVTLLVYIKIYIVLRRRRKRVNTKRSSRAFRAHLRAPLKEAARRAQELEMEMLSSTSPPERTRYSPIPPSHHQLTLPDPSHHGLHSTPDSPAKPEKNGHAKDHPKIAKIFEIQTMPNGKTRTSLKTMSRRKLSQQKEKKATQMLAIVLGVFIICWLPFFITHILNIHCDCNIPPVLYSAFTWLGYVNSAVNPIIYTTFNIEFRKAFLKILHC

Structure (SMILES)	amount of locomotor activity (rats)	rate of incidence of rotational behavior [1]	Ki [2] [nM]	binding affinity (in words) [2]	solubility (in words) [3]
O=C1c2ccccc2OC=C(Cl)N1CCCCN1CC=C(c2ccccn2)CC1 [SUN N4057, 3-chloro-4,5-dihydro-4-{4-[4-(2-pyridyl)-1,2,3,6-tetrahydropyridin-1-yl]butyl}-1,4-benzoxazepin-5-one.dihydrochloride-dihydrate]	no significant change	action on recovery	162		
Cl.Cl.Fc1ccc(-c2cncc(CNC[C@H]3CCc4ccccc4O3)c2)cc1 [Sarizotan, 1-[(2R)-3,4-dihydro-2H-chromen-2-yl]-N-{[5-(4-fluorophenyl)pyridin-3-yl]methyl}methanamine dihydrochloride]			2.56	comparatively strong binding affinity	poor in solubility
Cl.Cl.O=c1[nH]c2cccc(C3CCCN(Cc4cncc(-c5ccc(F)cc5)c4)C3)c2o1 (centres unmarked) [7-(1-{[5-(4-fluorophenyl)pyridin-3-yl]methyl}piperidin-3-yl)-1,3-benzoxazol-2(3H)-one dihydrochloride]			6.34	comparatively strong binding affinity	
